Where two headings read alike, the source gives them in different places.
Tests used:
all MMPs tested = conditions: read-out: IC50's on all MMPs tested; cited from earlier work
MMP-9 = target: T1, MMP-9 (Homo sapiens, UniProt P14780); assay: MMP enzymatic assay (Trupoint peptide), MMP-9; assay type: biochemical
T1 construct: Human MMP-9 catalytic domain (aa 107-446)

MMP-2 = target: T2, MMP-2 (Homo sapiens, UniProt P08253); assay: MMP enzymatic assay (Trupoint peptide), MMP-2; assay type: biochemical
T2 construct: Human MMP-2 full length (aa 1-660)
T2 sequence (P08253 30-660): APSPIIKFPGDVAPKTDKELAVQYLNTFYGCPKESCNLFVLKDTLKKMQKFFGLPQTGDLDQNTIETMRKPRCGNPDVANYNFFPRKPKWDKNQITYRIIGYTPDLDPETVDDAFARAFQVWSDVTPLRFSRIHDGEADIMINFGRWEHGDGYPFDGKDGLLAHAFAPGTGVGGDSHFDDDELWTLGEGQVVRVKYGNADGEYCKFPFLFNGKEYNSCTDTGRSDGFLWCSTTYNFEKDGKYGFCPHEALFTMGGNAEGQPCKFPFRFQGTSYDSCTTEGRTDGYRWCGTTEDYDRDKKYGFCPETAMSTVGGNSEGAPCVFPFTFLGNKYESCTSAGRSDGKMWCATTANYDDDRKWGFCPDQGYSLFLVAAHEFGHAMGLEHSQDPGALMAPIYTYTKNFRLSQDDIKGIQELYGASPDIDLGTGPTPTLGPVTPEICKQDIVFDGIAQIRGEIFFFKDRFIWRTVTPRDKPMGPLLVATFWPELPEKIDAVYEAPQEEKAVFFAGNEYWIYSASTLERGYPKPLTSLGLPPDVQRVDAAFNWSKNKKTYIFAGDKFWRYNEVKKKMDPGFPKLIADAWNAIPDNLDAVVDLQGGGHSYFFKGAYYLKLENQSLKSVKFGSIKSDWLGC

T1 sequence (P14780 107-446): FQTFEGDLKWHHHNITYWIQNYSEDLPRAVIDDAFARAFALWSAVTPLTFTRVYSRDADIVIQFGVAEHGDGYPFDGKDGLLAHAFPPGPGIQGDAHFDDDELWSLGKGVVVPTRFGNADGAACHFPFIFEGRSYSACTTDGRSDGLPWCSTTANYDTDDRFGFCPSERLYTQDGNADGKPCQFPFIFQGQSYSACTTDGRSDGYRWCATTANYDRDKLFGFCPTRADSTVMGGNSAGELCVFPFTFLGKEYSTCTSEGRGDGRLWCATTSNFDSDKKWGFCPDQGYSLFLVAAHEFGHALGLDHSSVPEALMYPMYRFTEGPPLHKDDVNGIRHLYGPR

For `CNC(=O)[C@H](Cc1c[nH]c2ccccc12)NC(=O)[C@H](Cc1ccccc1)C1OCCN(O)C1=O` (stereo partly shown), the IC50 (all MMPs tested) is given as 20100 to 104000 nM.

For `O=C1C(S(=O)(=O)c2ccc(-c3ccccc3)cc2)CCCCN1O` (stereo not shown) [Compound 83, 3-(Biphenyl-4-sulfonyl)-1-hydroxy-azepan-2-one], the IC50 (MMP-9) was over 1000 nM and the IC50 (MMP-2) was over 1000 nM.

`N#Cc1ccc(-c2ccc(S(=O)(=O)C3CCCCN(O)C3=O)cc2)cc1` (stereo not shown) [Compound 84, 4′-(1-Hydroxy-2-oxo-azepane-3-sulfonyl)-biphenyl-4-carbonitrile] gave an IC50 (MMP-9) of over 1000 nM and an IC50 (MMP-2) of over 1000 nM.

In the case of `Cc1ccc(-c2ccc(S(=O)(=O)C3CCCCN(O)C3=O)cc2)cc1` (stereo not shown) [Compound 86, 1-Hydroxy-3-(4′-methyl-biphenyl-4-sulfonyl)-azepan-2-one], the IC50 (MMP-9) is reported as over 1000 nM and the IC50 (MMP-2) is reported as over 1000 nM.

With `O=c1c(N(CCN2CCOCC2)S(=O)(=O)c2ccc(Oc3ccc(Cl)cc3)cc2)cccn1O` [Compound 87, 4-(4-Chloro-phenoxy)-N-(1-hydroxy-2-oxo-1,2-dihydro-pyridin-3-yl)-N-(2-morpholin-4-yl-ethyl)-benzenesulfonamide] the IC50 (MMP-9) was 4.2 nM and the IC50 (MMP-2; read-out: MMP-2 nM IC50) was 5 nM.

`Cc1ccc(-c2ccc(S(=O)(=O)N[C@@H]3CC=CCN(O)C3=O)s2)cc1` [Compound 90] showed an IC50 (MMP-9) of 8.6 nM and an IC50 (MMP-2) of 4.2 nM.

With `Cc1ccc(C#Cc2ccc(S(=O)(=O)N(CCN3CCOCC3)C3CC=CCN(O)C3=O)s2)cc1` (stereo not shown) [Compound 91] the IC50 (MMP-9) was 0.6 nM and the IC50 (MMP-2) was 2.2 nM.

`O=C1C(NS(=O)(=O)c2ccc(Oc3ccc(Cl)cc3)cc2)CCCCN1O` (stereo not shown) [Compound 92] gave an IC50 (MMP-9) of 5.9 nM and an IC50 (MMP-2) of 3.7 nM.

`O=C1C(N(CCN2CCOCC2)S(=O)(=O)c2ccc(-c3ccc(Cl)cc3)s2)CC=CCN1O` (stereo not shown) [Compound 93] showed an IC50 (MMP-9) of 17.2 nM and an IC50 (MMP-2) of 16.4 nM.

Molecule `O=C1C(CS(=O)(=O)c2ccc(Oc3ccccc3)cc2)NCCCN1O` (stereo not shown) [Compound 94] has an IC50 (MMP-9) of 21.1 nM and an IC50 (MMP-2) of 36.8 nM.

For `O=C1C(S(=O)(=O)c2ccc(-c3ccc(F)cc3)cc2)CCCCN1O` (stereo not shown) [Compound 95], the IC50 (MMP-9) was 1190 nM and the IC50 (MMP-2) was 584 nM.

`COc1ccc(S(=O)(=O)Cc2cccn(O)c2=O)cc1` [Compound 96] showed an IC50 (MMP-9) of over 1000 nM and an IC50 (MMP-2) of over 1000 nM.

For `COc1ccc(Oc2ccc(S(=O)(=O)Cc3cccn(O)c3=O)cc2)cc1` [Compound 97], the IC50 (MMP-9) was 7.26 nM and the IC50 (MMP-2; read-out: MMP-2 nM IC50) was 17.3 nM.

Work on `O=c1c(N(CCN2CCSCC2)S(=O)(=O)c2ccc(Oc3ccc(Cl)cc3)cc2)cccn1O` [Compound 98] yielded an IC50 (MMP-9) of 4.9 nM and an IC50 (MMP-2; read-out: MMP-2 nM IC50) of 6.1 nM.

Molecule `CN1CCN(CCN(c2cccn(O)c2=O)S(=O)(=O)c2ccc(Oc3ccc(Cl)cc3)cc2)CC1` [Compound 99] has an IC50 (MMP-9) of 1.3 nM and an IC50 (MMP-2; read-out: MMP-2 nM IC50) of 1.7 nM.

For “N-(1-Hydroxy-2-oxo-1,2-dihydro-pyridin-3-yl)-N-methyl-4-p-tolyloxy-benzene-sulfonamide [Compound 26]”, the IC50 (MMP-9) was 3.4 nM and the IC50 (MMP-2; read-out: MMP-2 nM IC50) was 6.1 nM.

Source: patent US7803793B2, “Heterocyclic derived metalloprotease inhibitors” (Janssen Pharmaceutica NV, priority 2006, dated 2010)
